Experimental data published in PubChem BioAssay AID248 (DTP/NCI, 2004).
Where “and” joins values, the source holds several entries; their conditions need not be identical. Equal entries are not always repeated. Toxic doses and inconclusive results are not listed. Rule as the data show it: active = T/C of 150% or more; inactive = T/C below 125%.

System: L1210 leukemia ip in BDF1 mice, survival T/C
Assay: NCI In Vivo Anticancer Drug Screen. Data for tumor model L1210 Leukemia (intraperitoneal) in B6D2F1 (BDF1) mice
Settings: endpoint: mean survival time, higher = longer survival
Outline: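 Antitumor effect is assessed in tumor-bearing animals. Survival in the compound arm is compared with a vehicle-dosed control arm and expressed as their quotient.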

[1] = dose: 100.0 mg/kg/injection, schedule: Q04DX003 (ip), vehicle: saline with Tween-80
[2] = dose: 100.0 mg/kg/injection, schedule: Q04DX003 (ip), vehicle: Klucel (hydroxypropylcellulose) (HPC)
[3] = dose: 200.0 mg/kg/injection, schedule: Q04DX003 (ip), vehicle: Klucel (hydroxypropylcellulose) (HPC)
[4] = dose: 400.0 mg/kg/injection, schedule: Q04DX003 (ip), vehicle: Klucel (hydroxypropylcellulose) (HPC)

Measured: T/C

O=C(/C=C/c1ccc(Cl)c(Cl)c1)c1ccc(Cl)cc1
inactive: dose: 6.25 mg/kg/injection, schedule: Q01DX009 (ip), vehicle: saline with Tween-80 97 % of control | dose: 6.25 mg/kg/injection, schedule: Q04DX003 (ip), vehicle: saline with Tween-80 110 % of control | dose: 12.5 mg/kg/injection, schedule: Q01DX009 (ip), vehicle: saline with Tween-80 97 % of control | dose: 12.5 mg/kg/injection, schedule: Q04DX003 (ip), vehicle: saline with Tween-80 96 % of control | dose: 25.0 mg/kg/injection, schedule: Q01DX009 (ip), vehicle: saline with Tween-80 95 % of control | dose: 25.0 mg/kg/injection, schedule: Q04DX003 (ip), vehicle: saline with Tween-80 94 % of control and 89 % of control | [1] 87 % of control and 88 % of control

CC1(C)N=C(N)N=C(N)N1c1cccc(CCCCc2ccccc2)c1
inactive: dose: 5.0 mg/kg/injection, schedule: Q01DX001 (ip), vehicle: saline 86 % of control | dose: 10.0 mg/kg/injection, schedule: Q01DX001 (ip), vehicle: saline 92 % of control | dose: 20.0 mg/kg/injection, schedule: Q01DX001 (ip), vehicle: saline 103 % of control | dose: 25.0 mg/kg/injection, schedule: Q01DX001 (ip), vehicle: saline with Tween-80 97 % of control | dose: 40.0 mg/kg/injection, schedule: Q01DX001 (ip), vehicle: saline 92 % of control | dose: 50.0 mg/kg/injection, schedule: Q01DX001 (ip), vehicle: saline with Tween-80 104 % of control | dose: 50.0 mg/kg/injection, schedule: Q01DX001 (ip), vehicle: saline 112 % of control | dose: 100.0 mg/kg/injection, schedule: Q01DX001 (ip), vehicle: saline with Tween-80 106 % of control

[N-]=[N+]=C1C(Cl)=C(Cl)C(Cl)=C1Cl
inactive: dose: 75.0 mg/kg/injection, schedule: Q01DX001 (ip), vehicle: other 96 % of control | dose: 150.0 mg/kg/injection, schedule: Q01DX001 (ip), vehicle: other 102 % of control

O=[N+]([O-])c1cccc(S(=O)(=O)NNc2cccc(Cl)c2)c1
inactive: [2] 94 % of control | [3] 94 % of control | [4] 98 % of control

O=[N+]([O-])c1cccc(SNc2cccc(Cl)c2)c1
inactive: dose: 100.0 mg/kg/injection, schedule: Q01DX009 (ip), vehicle: saline with Tween-80 98 % of control | [1] 93 % of control | dose: 200.0 mg/kg/injection, schedule: Q04DX003 (ip), vehicle: saline with Tween-80 95 % of control | dose: 400.0 mg/kg/injection, schedule: Q04DX003 (ip), vehicle: saline with Tween-80 90 % of control

CC1(C)C=C(C(Br)c2cccc(Cl)c2)C(=O)c2ccccc21 (configuration not stated)
inactive: dose: 100.0 mg/kg/injection, schedule: Q01DX009 (ip), vehicle: Klucel (hydroxypropylcellulose) (HPC) 101 % of control | [2] 109 % of control | dose: 200.0 mg/kg/injection, schedule: Q01DX009 (ip), vehicle: Klucel (hydroxypropylcellulose) (HPC) 104 % of control | [3] 106 % of control | dose: 400.0 mg/kg/injection, schedule: Q01DX009 (ip), vehicle: Klucel (hydroxypropylcellulose) (HPC) 106 % of control | [4] 104 % of control

O=C(Nc1cccc(O)c1)Nc1cccc(C(F)(F)F)c1
inactive: dose: 100.0 mg/kg/injection, schedule: Q01DX001 (ip), vehicle: carboxymethylcellulose (CMC) 92 % of control and 101 % of control | dose: 100.0 mg/kg/injection, schedule: Q01DX009 (ip), vehicle: carboxymethylcellulose (CMC) 94 % of control and 96 % of control | dose: 100.0 mg/kg/injection, schedule: Q04DX002 (ip), vehicle: carboxymethylcellulose (CMC) 92 % of control and 93 % of control | dose: 100.0 mg/kg/injection, schedule: Q04DX003 (ip), vehicle: carboxymethylcellulose (CMC) 95 % of control and 100 % of control | dose: 200.0 mg/kg/injection, schedule: Q01DX001 (ip), vehicle: carboxymethylcellulose (CMC) 96 % of control and 87 % of control | dose: 200.0 mg/kg/injection, schedule: Q01DX009 (ip), vehicle: carboxymethylcellulose (CMC) 94 % of control and 100 % of control | dose: 200.0 mg/kg/injection, schedule: Q04DX002 (ip), vehicle: carboxymethylcellulose (CMC) 92 % of control and 86 % of control | dose: 200.0 mg/kg/injection, schedule: Q04DX003 (ip), vehicle: carboxymethylcellulose (CMC) 92 % of control and 91 % of control | dose: 400.0 mg/kg/injection, schedule: Q01DX001 (ip), vehicle: carboxymethylcellulose (CMC) 92 % of control and 93 % of control | dose: 400.0 mg/kg/injection, schedule: Q01DX009 (ip), vehicle: carboxymethylcellulose (CMC) 100 % of control and 91 % of control | dose: 400.0 mg/kg/injection, schedule: Q04DX002 (ip), vehicle: carboxymethylcellulose (CMC) 95 % of control and 100 % of control | dose: 400.0 mg/kg/injection, schedule: Q04DX003 (ip), vehicle: carboxymethylcellulose (CMC) 87 % of control and 91 % of control
